Test results from article PMC10937199 (ESMO Open, 2024).

What was measured:
[1] = Peposertib plasma pharmacokinetics, Part A; format: in vivo, human; settings: Parts A and B
[2] = healthy volunteers; cited from earlier work
advanced solid tumors = assay: Best overall response per RECIST version 1.1, Part FE; format: in vivo, human
[3] = system: patients with advanced solid tumors; settings: Part B, 100-250 mg q.d.
[4] = system: patients with advanced solid tumors; assay: Safety; format: in vivo, human; settings: Part B

COc1ccc([C@@H](O)c2cc(-c3ncnc4cc(N5CCOCC5)ccc34)c(F)cc2Cl)nn1 [Peposertib]
7 (77.8) n (%): TEAE ([4]; 250 mg q.d., grade ≥3)
1 (11.1) n (%): Serious TEAE, peposertib related ([4]; 250 mg q.d., all grade) | Serious TEAE, radiotherapy related ([4]; 250 mg q.d., all grade) | IRR ([4]; 250 mg q.d., grade ≥3) | Serious TEAE, peposertib related ([4]; 250 mg q.d., grade ≥3) | Serious TEAE, radiotherapy related ([4]; 250 mg q.d., grade ≥3) | TEAE, peposertib related ([4]; 250 mg q.d., grade ≥3) | TEAE, radiotherapy related ([4]; 250 mg q.d., grade ≥3)
5 (26.3%): Peposertib-related TEAE: nausea ([4]; all dose levels)
1 (25.0) n (%): Immune-related AE ([4]; 200 mg q.d., all grade) | Serious TEAE ([4]; 200 mg q.d., all grade) | Serious TEAE ([4]; 200 mg q.d., grade ≥3) | TEAE ([4]; 200 mg q.d., grade ≥3)
8 (88.9) n (%): TEAE, treatment related ([4]; 250 mg q.d., all grade)
3 (100.0) n (%): TEAE ([4]; 100 mg q.d., all grade) | TEAE, treatment related ([4]; 100 mg q.d., all grade) | TEAE ([4]; 150 mg q.d., all grade) | TEAE, treatment related ([4]; 150 mg q.d., all grade)
2/9: Serious TEAE: dehydration ([4]; 250 mg q.d.)
5 (55.6) n (%): TEAE, peposertib related ([4]; 250 mg q.d., all grade) | TEAE, radiotherapy related ([4]; 250 mg q.d., all grade)
1 (33.3) n (%): Serious TEAE, treatment related ([4]; 100 mg q.d., all grade) | TEAE, radiotherapy related ([4]; 100 mg q.d., all grade) | Serious TEAE, treatment related ([4]; 100 mg q.d., grade ≥3) | TEAE, treatment related ([4]; 100 mg q.d., grade ≥3) | IRR ([4]; 150 mg q.d., all grade) | Serious TEAE ([4]; 150 mg q.d., all grade) | Serious TEAE, treatment related ([4]; 150 mg q.d., all grade) | TEAE, peposertib related ([4]; 150 mg q.d., all grade) | TEAE, radiotherapy related ([4]; 150 mg q.d., all grade) | Serious TEAE ([4]; 150 mg q.d., grade ≥3) | Serious TEAE, treatment related ([4]; 150 mg q.d., grade ≥3) | TEAE, peposertib related ([4]; 150 mg q.d., grade ≥3) | TEAE, radiotherapy related ([4]; 150 mg q.d., grade ≥3)
33.3%: Best overall response of stable disease (SD) or non-CR/non-PD (advanced solid tumors; all dose levels)
only a mild food effect: Food effect [2]
0 n (%): Immune-related AE ([4]; 100 mg q.d., all grade) | Serious TEAE, peposertib related ([4]; 100 mg q.d., all grade) | Serious TEAE, radiotherapy related ([4]; 100 mg q.d., all grade) | TEAEs leading to death ([4]; 100 mg q.d., all grade) | Treatment-related AE leading to death ([4]; 100 mg q.d., all grade) | IRR ([4]; 100 mg q.d., grade ≥3) | Immune-related AE ([4]; 100 mg q.d., grade ≥3) | Serious TEAE, peposertib related ([4]; 100 mg q.d., grade ≥3) | Serious TEAE, radiotherapy related ([4]; 100 mg q.d., grade ≥3) | TEAE, peposertib related ([4]; 100 mg q.d., grade ≥3) | TEAE, radiotherapy related ([4]; 100 mg q.d., grade ≥3) | TEAEs leading to death ([4]; 100 mg q.d., grade ≥3) | Treatment-related AE leading to death ([4]; 100 mg q.d., grade ≥3) | Immune-related AE ([4]; 150 mg q.d., all grade) | Serious TEAE, peposertib related ([4]; 150 mg q.d., all grade) | Serious TEAE, radiotherapy related ([4]; 150 mg q.d., all grade) | TEAEs leading to death ([4]; 150 mg q.d., all grade) | Treatment-related AE leading to death ([4]; 150 mg q.d., all grade) | IRR ([4]; 150 mg q.d., grade ≥3) | Immune-related AE ([4]; 150 mg q.d., grade ≥3) | Serious TEAE, peposertib related ([4]; 150 mg q.d., grade ≥3) | Serious TEAE, radiotherapy related ([4]; 150 mg q.d., grade ≥3) | TEAEs leading to death ([4]; 150 mg q.d., grade ≥3) | Treatment-related AE leading to death ([4]; 150 mg q.d., grade ≥3) | Serious TEAE, peposertib related ([4]; 200 mg q.d., all grade) | Serious TEAE, radiotherapy related ([4]; 200 mg q.d., all grade) | Serious TEAE, treatment related ([4]; 200 mg q.d., all grade) | TEAEs leading to death ([4]; 200 mg q.d., all grade) | Treatment-related AE leading to death ([4]; 200 mg q.d., all grade) | IRR ([4]; 200 mg q.d., grade ≥3) | Immune-related AE ([4]; 200 mg q.d., grade ≥3) | Serious TEAE, peposertib related ([4]; 200 mg q.d., grade ≥3) | Serious TEAE, radiotherapy related ([4]; 200 mg q.d., grade ≥3) | Serious TEAE, treatment related ([4]; 200 mg q.d., grade ≥3) | TEAE, peposertib related ([4]; 200 mg q.d., grade ≥3) | TEAE, radiotherapy related ([4]; 200 mg q.d., grade ≥3) | TEAE, treatment related ([4]; 200 mg q.d., grade ≥3) | TEAEs leading to death ([4]; 200 mg q.d., grade ≥3) | Treatment-related AE leading to death ([4]; 200 mg q.d., grade ≥3) | TEAEs leading to death ([4]; 250 mg q.d., all grade) | Treatment-related AE leading to death ([4]; 250 mg q.d., all grade) | TEAEs leading to death ([4]; 250 mg q.d., grade ≥3) | Treatment-related AE leading to death ([4]; 250 mg q.d., grade ≥3)
11.1%: Peposertib-related pneumonitis ([4]; 250 mg q.d.)
Some accumulation was observed: Accumulation ([1]; after q.d. and b.i.d. dosing)
no DLT was reported: DLT [3]
6 (31.6%): Discontinuation of all study treatments due to AEs ([4]; all dose levels)
4 (100.0) n (%): TEAE ([4]; 200 mg q.d., all grade) | TEAE, treatment related ([4]; 200 mg q.d., all grade)
generally proportional to the dose: Peposertib exposure versus dose ([1]; across all dose levels after single or multiple (q.d. and b.i.d.) doses)
3 (75.0) n (%): TEAE, radiotherapy related ([4]; 200 mg q.d., all grade)
3 (33.3) n (%): IRR ([4]; 250 mg q.d., all grade) | TEAE, treatment related ([4]; 250 mg q.d., grade ≥3)
2 (22.2) n (%): Immune-related AE ([4]; 250 mg q.d., all grade) | Serious TEAE, treatment related ([4]; 250 mg q.d., all grade) | Immune-related AE ([4]; 250 mg q.d., grade ≥3) | Serious TEAE, treatment related ([4]; 250 mg q.d., grade ≥3)
2 (50.0) n (%): IRR ([4]; 200 mg q.d., all grade) | TEAE, peposertib related ([4]; 200 mg q.d., all grade)
2 (66.7) n (%): IRR ([4]; 100 mg q.d., all grade) | Serious TEAE ([4]; 100 mg q.d., all grade) | TEAE, peposertib related ([4]; 100 mg q.d., all grade) | Serious TEAE ([4]; 100 mg q.d., grade ≥3) | TEAE ([4]; 100 mg q.d., grade ≥3) | TEAE ([4]; 150 mg q.d., grade ≥3) | TEAE, treatment related ([4]; 150 mg q.d., grade ≥3)
6 (66.7) n (%): Serious TEAE ([4]; 250 mg q.d., all grade) | Serious TEAE ([4]; 250 mg q.d., grade ≥3)
9 (100.0) n (%): TEAE ([4]; 250 mg q.d., all grade)
3 (15.8%): Peposertib-related TEAE: vomiting ([4]; all dose levels)
one of nine: Patients with a PR (advanced solid tumors; all patients, response at 200 mg b.i.d.)
